Values belong to the molecule of their own block, whether it stands above or below them.
Tests used:
[1] = system: picryl chloride-induced ear swelling; settings: picryl chloride-induced ear swelling mouse model; cited from earlier work
[2] = molecular target: T1, TAK1 kinase domain (residues I31-Q303) of human transforming growth factor-beta-activated kinase 1, as part … (human, UniProt O43318 31-303); assay: X-ray crystal structure of the TAK1(I31-Q303)/TAB1(H468-P504) chimera (both parts in one fused chain)
T1 construct: range 31-303; In the crystal this domain is not a separate chain; Its C-terminus (Q303) is fused directly, without linker, to TAB1 H468-P504, giving one polypeptide; It was expressed in baculovirus/Hi5 cells and is unphosphorylated; The N-terminal His6 tag was removed by thrombin; also called TAK1 catalytic kinase domain
T1 sequence (looked up): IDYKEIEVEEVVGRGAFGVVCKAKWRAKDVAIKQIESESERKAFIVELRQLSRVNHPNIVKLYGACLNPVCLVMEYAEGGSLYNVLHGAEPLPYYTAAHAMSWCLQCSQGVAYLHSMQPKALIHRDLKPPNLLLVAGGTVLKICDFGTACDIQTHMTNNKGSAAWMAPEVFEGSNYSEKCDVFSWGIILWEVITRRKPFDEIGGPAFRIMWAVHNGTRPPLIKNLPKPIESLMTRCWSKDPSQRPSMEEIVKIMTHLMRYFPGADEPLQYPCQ

Molecule: COc1cc(O)c2c(c1)/C=C/C[C@H](O)[C@H](O)C(=O)/C=C\C[C@H](C)OC2=O [5Z-7-oxozeaenol]
- effect on inflammation [1]: relieves inflammation

- binding result [2]: binds
B1: TAB1 segment (residues H468-P504) of human TAK1 binding protein, as part of the TAK1(I31-Q303)/TAB1(H468-P504) chimera (peptide, UniProt Q15750 468-504, looked up)
chain: HSLPPGEDGRVEPYVDFAEFYRLWSVDHGEQSVVTAP
notes: range 468-504; In the crystal this segment is not a separate chain; It is fused directly to the C-terminus of TAK1 I31-Q303; also called Tab1 peptide

Reference: US20110171714A1, “CRYSTAL STRUCTURE OF TAK1-TAB1” (VERTEX PHARMACEUTICALS INCORPORATED, priority 2005, published 2011)
